Earlier results on one compound are cited in US20080153832A1, “PAN-ALPHA-2 RECEPTOR AGONIST AND RELAXANT COMPOSITIONS FOR TREATING GASTROINTESTINAL MOTILITY DISORDERS” (Allergan, Inc., priority 2006, published 2008).

In the case of `CN(C)[C@@H](CCOc1cccc2ccccc12)c1ccccc1` [Dapoxetine], the “time to maximum serum concentration” value is listed as “about 1 hour”.
